Reference: patent publication US20170143712A1, “Methods of Treating Cancers, Immune and Autoimmune Diseases, and Inflammatory Diseases Based on BTK Occupancy and BTK Resynthesis Rate” (Acerta Pharma B.V., priority 2014, published 2017)
Where two headings read alike, the source gives them in different places.

Columns and labels:
B cell receptor (BCR) [1] = assay: Ex vivo anti-IgM induced CD86 and CD69 expression on splenocyte B cells after oral dosing of mice; format: in vivo, mouse; conditions: single oral 25 mg/kg; for inhibition at 25 mg/kg: Mus musculus, B-cell, 3-24 hours, read-out: CD69 % inhibition over the entire time course; for inhibition of ex vivo anti-IgM induced responses in B cells: 3 hours post-dose
Experimental: (§1) B cell stimulation through the B cell receptor (BCR) with antibodies (e.g., anti-IgM) results in the activation of BTK and subsequent cellular changes, including the upregulation of various cell surface receptors. Measuring the inhibition of BCR induced protein phosphorylation downstream of Btk, and the inhibition of surface receptor upregulation provides a way to assess the Btk inhibitor activity. In the first study, the BTK target occupancy in splenocytes was measured over time, providing evidence for BTK resynthesis in the tissue compartment of interest.
(§2) Mice were sacrificed at 3, 6, 12, 18, and 24 hours after treatment with the BTK inhibitors (FIG. 27A, FIG. 27B, and FIG. 27C). Spleens were harvested and splenocyte preparations were made for flow cytometry analysis of B cell functions. Fresh or cryopreserved splenocytes were cultured with a-IgM to stimulate BCR, and the up-regulation of CD69, an early functional marker of B cell activation, was analyzed by flow cytometry.

BTK = biological target: T1, BTK (Mus musculus, UniProt P35991); assay: BTK target occupancy in mouse splenocytes after a single oral dose; format: in vivo; conditions: single oral 25 mg/kg, 3 hours
T1 construct: from tissue; host or cells: mouse spleen (splenocytes), animals dosed in vivo; A19 used DBA/1 mice with collagen-induced arthritis

S6 phosphorylation = assay: Basal and anti-IgM induced S6 phosphorylation in splenocytes after oral dosing of mice; format: in vivo, mouse; conditions: single oral 25 mg/kg; rank order Formula (II)>ibrutinib>Formula (XVII)
Experimental: as §1, §2
A downstream marker of BTK activity, S6 phosphorylation, was also monitored in this study. […] In a second study, the effects of another inhibitor of BTK that covalently inactivates the kinase, Formula (XXI), were compared with Formula (II) to evaluate the return of BCR function and B cell activation, as illustrated in FIG. 29A and FIG. 29B.

B cell receptor (BCR) [2] = assay: Ex vivo anti-IgM induced CD86 and CD69 expression on splenocyte B cells after oral dosing of mice; format: in vivo; conditions: Mus musculus, single oral 25 mg/kg, 3-24 hours, read-out: CD86 % inhibition over the entire time course
psoriasis = conditions: tyrosine kinase inhibitors used for malignancies; cited from earlier work
[3] = tested on: BCR signaling through BTK; assay: Anti-IgM induced CD86 and CD69 on splenocyte B cells of CIA mice; format: in vivo, mouse; conditions: splenocytes 3 hr after last dosing on day 14
Experimental: (§3) FIG. 45 illustrates changes in a functional measure of BCR signalling through the CD86 marker. Mouse splenocytes were isolated from spleens from mice that were part of the mouse CIA study semi-therapeutic protocol, 3 hr after the last dosing on day 14 of the treatment and cryopreserved. After thawing, inhibition of anti-IgM-induced PD markers CD86 and CD69 on mouse splenocyte B cells were measured. Error bars represent the standard deviation for the 3 sets of splenocytes analyzed.
as §3, with “FIG. 46” for “FIG. 45”, “the CD69” for “the CD86”
Inhibition of the BCR signaling through BTK was evaluated by ex vivo stimulation of splenocytes using IgM and evaluation of CD86 and CD69 as functional responses of BCR stimulation.

[4] = tested on: established type II collagen-induced arthritis (CIA) in DBA/1 mice; assay: 14-day mouse established type II collagen-induced arthritis (CIA), PO QD (Example 10); format: in vivo; conditions: for AUC (All Paws) - Corrected for Initial Score / Change in Body Weight (g) / Histopathology Summed Score Knees / Histopathology Summed Score Paws / Histopathology Summed Score Six-Joints / Paw Score AUC (All Paws): mean(SE); for disease-induced body weight loss (percent change from baseline) vs vehicle controls / arthritis scores measured daily vs vehicle controls: p<0.05 on the days printed; for arthritis scores measured daily vs vehicle controls: all paws
Experimental: Prior to dosing, the candidate anti-inflammatory agents were reconstituted either by vortexing or stirring. The candidate anti-inflammatory agents were administered to the DBA/1 mice daily (QD) by the oral (PO) route.
Immunization with heterologous type II collagen (CII) induces arthritis in mice of the DBA/1 strain, which is genetically susceptible to this disease. To develop an experimental model of autoimmunity more adequate for the study of human rheumatoid arthritis (RA), male DBA/1 mice were injected intradermally (ID) with bovine type II collagen to induce arthritis as reported by Trentham et al (Trentham D E, Townes A S, Kang A H Autoimmunity to type II collagen: an experimental model of arthritis. J. Exper. Med. 1977, 146:857-868) and Bendele A (Bendele A, Animal models of rheumatoid arthritis. J. Musculoskelet. Neuronal Interact. 2001, 1(4):377-85). Male DBA/1 mice (n=114) that were 6-7 weeks old and weighed approximately 18-27 grams (mean 22 g) at enrollment (arthritis day 1) were obtained from Taconic Farms, Inc. The male DBA/1 mice were at least 6 weeks old at time of first immunization and were housed 3-5/cage in shoe-box polycarbonate cages with wire tops, wood chip bedding, and suspended food and water bottles. These animals were identified by a distinct number of ink marks at the base of the tail delineating animal number. After enrollment, all cages were labeled with protocol number, group number, and animal numbers.
The male DBA/1 (n=10/group for arthritis) were anaesthetized with Isoflurane, shaved at the base of the tail, and injected intradermally with 150 μL of Freund's Complete Adjuvant (Difco, Detroit, Mich.) containing bovine type II collagen (BBP, batch #7) (1 mg/ml) at the base of the tail on day 0 and again on day 21. […] Randomization was done after swelling was obviously established in at least one paw (score of 1) and attempts were made to ensure approximately equal mean scores of 0.5-1 across groups at the time of enrollment. […] The male DBA/1 mice were terminated on arthritis day 14 (3 hours post-dose).
Efficacy evaluation of the administered anti-inflammatory agents was based on animal body weights, clinical arthritis scores, arthritis scores expressed as area under the curve (AUC), and histopathology on fore paws, hind paws, and knees. Histopathology results were expressed as 4 paws, knees only, or 6 joints (knees included). Day 13 was used as the endpoint for analysis of body weight change since the male DBA/1 mice were fasted overnight prior to necropsy on day 14.

T1 sequence (P35991 whole entry): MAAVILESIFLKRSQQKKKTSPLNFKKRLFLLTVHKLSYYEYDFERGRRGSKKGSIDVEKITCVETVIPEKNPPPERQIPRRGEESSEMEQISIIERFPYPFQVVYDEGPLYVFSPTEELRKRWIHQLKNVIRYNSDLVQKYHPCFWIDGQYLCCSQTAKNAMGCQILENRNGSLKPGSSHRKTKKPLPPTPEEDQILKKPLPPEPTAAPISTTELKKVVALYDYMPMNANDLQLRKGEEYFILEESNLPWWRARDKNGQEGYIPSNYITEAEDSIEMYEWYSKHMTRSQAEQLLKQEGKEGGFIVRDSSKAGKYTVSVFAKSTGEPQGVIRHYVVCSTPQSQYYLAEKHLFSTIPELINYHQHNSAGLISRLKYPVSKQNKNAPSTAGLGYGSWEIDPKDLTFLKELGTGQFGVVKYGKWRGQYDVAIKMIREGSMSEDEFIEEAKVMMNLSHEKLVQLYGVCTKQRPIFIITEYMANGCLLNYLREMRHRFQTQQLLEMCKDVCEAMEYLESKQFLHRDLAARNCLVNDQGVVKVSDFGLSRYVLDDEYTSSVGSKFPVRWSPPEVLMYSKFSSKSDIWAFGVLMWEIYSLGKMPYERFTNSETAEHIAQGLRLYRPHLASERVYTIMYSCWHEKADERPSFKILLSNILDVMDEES

With C=CC(=O)Nc1cccc(Nc2nc(Nc3ccc(OCCOC)cc3)ncc2F)c1 [Formula (XVII), N-(3-((5-fluoro-2-((4-(2-methoxyethoxy)phenyl)amino)pyrimidin-4-yl)amino)phenyl)acrylamide] the inhibition at 25 mg/kg (B cell receptor (BCR) [1]) was 44.8%, the “inhibition of ex vivo anti-IgM induced responses in B cells” value (B cell receptor (BCR) [1]) was “incomplete inhibition” and the “BTK target occupancy in splenocytes” value (BTK) was “incomplete BTK target occupancy”. The “basal state and anti-IgM induced S6 phosphorylation” value (S6 phosphorylation) was “inhibited both basal state and anti-IgM induced S6 phosphorylation” and the inhibition at 25 mg/kg (B cell receptor (BCR) [2]) was 28.1%.
For Cc1ccc(C(=O)Nc2ccc(CN3CCN(C)CC3)c(C(F)(F)F)c2)cc1C#Cc1cnc2cccnn12 [Ponatinib], the “effect on psoriasis / skin in patients” value (psoriasis) is given as “induces an almost psoriasis-like disease”.
In the case of Cc1nc(Nc2ncc(C(=O)Nc3c(C)cccc3Cl)s2)cc(N2CCN(CCO)CC2)n1 [dasatinib], the “effect on psoriasis / skin in patients” value (psoriasis) is given as “has not been reported to improve psoriasis”.
In the case of C=CC(=O)N1CCC[C@@H](n2nc(-c3ccc(Oc4ccccc4)cc3)c3c(N)ncnc32)C1 [ibrutinib, (R)-1-(3-(4-amino-3-(4-phenoxyphenyl)-1H-pyrazolo[3,4-d]pyrimidin-1-yl)piperidin-1-yl)prop-2-en-1-one], the “BCR-mediated signaling (anti-IgM induced CD86 and CD69)” value [3] is reported as “dose-responsive decreases in BCR-mediated signaling”, the “AUC (All Paws) - Corrected for Initial Score” value (shortened to “AUC (All Paws) - Corrected”) ([4]; 1 mg/kg PO QD) is reported as 20.81(4.47) and the “Change in Body Weight (g)” value ([4]; 1 mg/kg PO QD) is reported as −1.28(0.69) g. The “Histopathology Summed Score Knees” value ([4]; 1 mg/kg PO QD) was “‡10.15(1.16)”, the “Histopathology Summed Score Paws” value ([4]; 1 mg/kg PO QD) was 10.30(1.84) and the “Histopathology Summed Score Six-Joints” value ([4]; 1 mg/kg PO QD) was 10.25(1.36). The “Paw Score AUC (All Paws)” value ([4]; 1 mg/kg PO QD) was 28.29(5.18), the “disease-induced body weight loss (percent change from baseline) vs vehicle controls” value ([4]; 1 mg/kg PO QD) was “significantly inhibited toward normal” and the “daily arthritis scores vs vehicle controls” value ([4]; 1 mg/kg PO QD, prophylactic paws) was “significantly reduced toward normal”. The “six-joint histopathology, reduction of summed scores vs vehicle controls” value ([4]; 5 mg/kg PO QD) was 79%, the “total body weight loss from enrollment to study termination” value ([4]; 5 mg/kg PO QD) was “significantly inhibited” and the “arthritis scores measured daily vs vehicle controls” value ([4]; 5 mg/kg PO QD) was “significantly reduced toward normal”. The “AUC (All Paws) - Corrected” value ([4]; 5 mg/kg PO QD) was “*3.68(2.18)”, the “Change in Body Weight (g)” value ([4]; 5 mg/kg PO QD) was “*0.45(0.65) g” and the “Histopathology Summed Score Paws” value ([4]; 5 mg/kg PO QD) was “*3.63(1.07)”. The “Histopathology Summed Score Six-Joints” value ([4]; 5 mg/kg PO QD) was “*3.11(0.95)”, the “disease-induced body weight loss (percent change from baseline) vs vehicle controls” value ([4]; 5 mg/kg PO QD) was “significantly inhibited toward normal” and the “daily arthritis scores vs vehicle controls” value ([4]; 5 mg/kg PO QD, prophylactic paws) was “significantly reduced toward normal”. The “six-joint histopathology, reduction of summed scores vs vehicle controls” value ([4]; 25 mg/kg PO QD) was 94%, the “total body weight loss from enrollment to study termination” value ([4]; 25 mg/kg PO QD) was “significantly inhibited” and the “arthritis scores measured daily vs vehicle controls” value ([4]; 25 mg/kg PO QD) was “significantly reduced toward normal”. The “AUC (All Paws) - Corrected” value ([4]; 25 mg/kg PO QD) was “*−4.09(1.58)”, the “Change in Body Weight (g)” value ([4]; 25 mg/kg PO QD) was “*0.83(0.62) g” and the “Histopathology Summed Score Knees” value ([4]; 25 mg/kg PO QD) was “*0.65(0.29)”. The “Histopathology Summed Score Paws” value ([4]; 25 mg/kg PO QD) was “*0.91(0.48)”, the “Histopathology Summed Score Six-Joints” value ([4]; 25 mg/kg PO QD) was “*0.83(0.30)” and the “Paw Score AUC (All Paws)” value ([4]; 25 mg/kg PO QD) was “*3.06(1.08)”. For the same compound, the “disease-induced body weight loss (percent change from baseline) vs vehicle controls” value ([4]; 25 mg/kg PO QD) was “significantly inhibited toward normal”, the “daily arthritis scores vs vehicle controls” value ([4]; 25 mg/kg PO QD, prophylactic paws) was “significantly reduced toward normal” and the “daily arthritis scores vs vehicle controls” value ([4]; 25 mg/kg PO QD, therapeutic paws) was “significantly reduced toward normal”. For the same compound, the “spleen weights compared to vehicle controls” value ([4]; all dose groups PO QD) was “not significantly affected”, the inhibition at 25 mg/kg (B cell receptor (BCR) [1]) was 83.4% and the “inhibition of ex vivo anti-IgM induced responses in B cells” value (B cell receptor (BCR) [1]) was “near complete inhibition”. The “inhibition of CD86 and CD69 expression” value (B cell receptor (BCR) [1]; persisting for 24 hours) was “partial inhibition”, the “basal state and anti-IgM induced S6 phosphorylation” value (S6 phosphorylation) was “inhibited both basal state and anti-IgM induced S6 phosphorylation” and the inhibition at 25 mg/kg (B cell receptor (BCR) [2]) was 62.9%.
In the case of Cc1ccc(NC(=O)c2ccc(CN3CCN(C)CC3)cc2)cc1Nc1nccc(-c2cccnc2)n1 [imatinib], the “effect on psoriasis / skin in patients” value (psoriasis) is given as “may cause worsening of psoriasis”.
